What was measured:
[1] = Dissolution of the example 7 composition in media of different pH (Basket/100 RPM/900 ml); format: physicochemical; conditions: 0.1N HCl vs phosphate buffer pH 6.0 and pH 6.8
[2] = cited from earlier work
[3] = cited from earlier work; remark: listed apart in the source

In the case of CN1CCN(C2=Nc3cc(Cl)ccc3Nc3ccccc32)CC1 [Clozapine, 8-chloro-11-(4-methyl-1-piperazinyl)-5H-dibenzo[b,e][1,4]diazepine], the “solubility behaviour concluded from dissolution data” value [1] is given as “pH dependent solubility”, the “dose that reaches systemic circulation unchanged” value ([2]; extensive first pass metabolism) is given as 27-50% and the “plasma half-life, mean value” ([2]; wide inter-individual variation) is given as 6 ± 1.5 h. For the same compound, the “solubility in acidic pH” value ([3]; acidic pH) was “soluble in acidic pH”, the “solubility in basic pH” value ([3]; basic pH) was “practically insoluble in basic pH” and the “solubility in intestinal pH” value ([3]; intestinal pH) was “insoluble in intestinal pH”. The solubility in water ([3]; water) was “very slightly soluble in water”.

From patent US11504336B2, “Extended release pharmaceutical composition of clozapine” (INTAS PHARMACEUTICALS LTD., priority 2016, dated 2022)
